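Interpolation was linear, between the two tested concentrations surrounding the appropriate level; five concentrations were tested over 48 hours in 96-well plates. GI50: concentration for 50% inhibition of growth.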 Calls of active or inactive are those of the source. No stated cut-off is given here; in the data, active = GI50 up to about 1.1 µM and inactive = higher. Where a SMILES comes first, the peptide text is derived from it. [ ]: non-standard residue; d: D form. The star is where a group is joined. ξ: configuration not given here. Propanoyl(3-(4-MeO-Ph)) = COc1ccc(CCC(=O)*)cc1; Thr(3ξ) = CC(O)[C@H](N)C(=O)O; dNMeL = CN[C@H](CC(C)C)C(=O)O; Ac5c = NC1(C(=O)O)CCCC1; OBn = c1ccc(CO*)cc1; ξLac = CC(O)C(=O)O
Columns and labels:
Experiment in all cases: DTP human tumour cell line panel, 48 h
[1] = system: 786-0
[2] = system: A549
[3] = system: COLO 205
[4] = system: HCT-15
[5] = system: HL-60
[6] = system: HT-29
[7] = system: Hs-578T
[8] = system: IGROV-1
[9] = system: K562
[10] = system: LOX IMVI
[11] = system: MCF7
[12] = system: MDA-MB-231
[13] = system: MOLT-4
[14] = system: Malme-3M
[15] = system: OVCAR-4
[16] = system: OVCAR-5
[17] = system: RPMI-8226
[18] = system: SK-MEL-5
[19] = system: SNB-19
[20] = system: T47D

CN(C)CC1COC2Cc3ccccc3C1O2 (stereo not given)
GI50 [1]: > 100 µM (inactive) | GI50 [2]: > 100 µM (inactive) | GI50 [3]: > 100 µM (inactive) | GI50 [4]: > 100 µM | GI50 [5]: 72.6 µM (inactive) | GI50 [6]: > 100 µM (inactive) | GI50 [7]: > 100 µM (inactive) | GI50 [8]: > 100 µM (inactive) | GI50 [9]: > 100 µM (inactive) | GI50 [10]: > 100 µM (inactive) | GI50 [11]: > 100 µM (inactive) | GI50 [12]: > 100 µM (inactive) | GI50 [13]: > 100 µM (inactive) | GI50 [14]: > 100 µM (inactive) | GI50 [15]: > 100 µM (inactive) | GI50 [16]: > 100 µM (inactive) | GI50 [17]: > 100 µM (inactive) | GI50 [18]: > 100 µM (inactive) | GI50 [19]: > 100 µM (inactive) | GI50 [20]: > 100 µM (inactive)

COc1ccc(NC(C(N)=O)c2cc3cc(Br)ccc3nc2Cl)cc1 (stereo not given)
GI50 [1]: > 100 µM (inactive) | GI50 [2]: 91.8 µM (inactive) | GI50 [3]: 41 µM (inactive) | GI50 [4]: 47.5 µM | GI50 [5]: 25.4 µM (inactive) | GI50 [6]: > 100 µM (inactive) | GI50 [7]: > 100 µM (inactive) | GI50 [8]: 25.5 µM (inactive) | GI50 [9]: 26.7 µM (inactive) | GI50 [10]: 44.6 µM (inactive) | GI50 [11]: 32.4 µM (inactive) | GI50 [12]: 90.6 µM (inactive) | GI50 [13]: 20.2 µM (inactive) | GI50 [14]: > 100 µM (inactive) | GI50 [15]: 68.4 µM (inactive) | GI50 [16]: > 100 µM (inactive) | GI50 [17]: 30.4 µM (inactive) | GI50 [18]: 53.5 µM (inactive) | GI50 [19]: > 100 µM (inactive) | GI50 [20]: 58.1 µM (inactive)

CCCCCCNC(=O)c1cc(CCc2cc(O)ccc2O)ccc1O
GI50 [1]: 2.04 µM (inactive) | GI50 [2]: 7.83 µM (inactive) | GI50 [3]: 10.9 µM (inactive) | GI50 [4]: 2.48 µM | GI50 [5]: 0.723 µM (active) | GI50 [6]: 20.1 µM (inactive) | GI50 [7]: 3.59 µM (inactive) | GI50 [8]: 2.1 µM (inactive) | GI50 [9]: 2.38 µM (inactive) | GI50 [10]: 4.67 µM (inactive) | GI50 [11]: 3.25 µM (inactive) | GI50 [12]: 2.25 µM (inactive) | GI50 [13]: 1.93 µM (inactive) | GI50 [14]: 2.35 µM (inactive) | GI50 [15]: 2.47 µM (inactive) | GI50 [16]: 7.05 µM (inactive) | GI50 [17]: 1.11 µM (active) | GI50 [18]: 4.62 µM (inactive) | GI50 [19]: 10.7 µM (inactive) | GI50 [20]: 1.85 µM (inactive)

O=C(NNC(=O)c1cc2ccccc2[nH]1)c1cc2ccccc2[nH]1
GI50 [1]: > 100 µM (inactive) | GI50 [2]: > 100 µM (inactive) | GI50 [3]: > 100 µM (inactive) | GI50 [4]: > 100 µM | GI50 [5]: 95.7 µM (inactive) | GI50 [6]: > 100 µM (inactive) | GI50 [7]: > 100 µM (inactive) | GI50 [8]: > 100 µM (inactive) | GI50 [9]: 80 µM (inactive) | GI50 [10]: > 100 µM (inactive) | GI50 [11]: > 100 µM (inactive) | GI50 [12]: > 100 µM (inactive) | GI50 [13]: > 100 µM (inactive) | GI50 [14]: > 100 µM (inactive) | GI50 [15]: > 100 µM (inactive) | GI50 [16]: > 100 µM (inactive) | GI50 [17]: > 100 µM (inactive) | GI50 [18]: > 100 µM (inactive) | GI50 [19]: > 100 µM (inactive) | GI50 [20]: > 100 µM (inactive)

NC1(C(=O)NC2(C(=O)O)CCCC2)CCCC1 (H-[Ac5c]-[Ac5c]-OH)
GI50 [1]: > 100 µM (inactive) | GI50 [2]: > 100 µM (inactive) | GI50 [3]: > 100 µM (inactive) | GI50 [4]: > 100 µM | GI50 [5]: > 100 µM (inactive) | GI50 [6]: > 100 µM (inactive) | GI50 [7]: > 100 µM (inactive) | GI50 [8]: > 100 µM (inactive) | GI50 [9]: > 100 µM (inactive) | GI50 [10]: > 100 µM (inactive) | GI50 [11]: > 100 µM (inactive) | GI50 [12]: > 100 µM (inactive) | GI50 [13]: > 100 µM (inactive) | GI50 [14]: > 100 µM (inactive) | GI50 [15]: > 100 µM (inactive) | GI50 [16]: > 100 µM (inactive) | GI50 [17]: > 100 µM (inactive) | GI50 [18]: > 100 µM (inactive) | GI50 [19]: > 100 µM (inactive) | GI50 [20]: > 100 µM (inactive)

COc1ccc(CCC(=O)OC(C)[C@H](NC(=O)[C@@H](CC(C)C)N(C)C(=O)[C@@H]2CCCN2C(=O)C(C)O)C(=O)OCc2ccccc2)cc1 (stereo not given in full) (H-[ξLac]P[dNMeL][Thr(3ξ)](Propanoyl(3-(4-MeO-Ph)))-OBn)
GI50 [1]: 35.2 µM (inactive) | GI50 [2]: 52.4 µM (inactive) | GI50 [3]: 19.5 µM (inactive) | GI50 [4]: 32.3 µM | GI50 [5]: 28.2 µM (inactive) | GI50 [6]: 36.5 µM (inactive) | GI50 [7]: 12.9 µM (inactive) | GI50 [8]: 30.5 µM (inactive) | GI50 [9]: 27.8 µM (inactive) | GI50 [10]: 17.9 µM (inactive) | GI50 [11]: 38.1 µM (inactive) | GI50 [12]: 19.3 µM (inactive) | GI50 [13]: 24.3 µM (inactive) | GI50 [14]: 20.8 µM (inactive) | GI50 [15]: 73.8 µM (inactive) | GI50 [16]: > 100 µM (inactive) | GI50 [17]: 28.7 µM (inactive) | GI50 [18]: 15.5 µM (inactive) | GI50 [19]: 66.2 µM (inactive) | GI50 [20]: 33.6 µM (inactive)

C[C@H](CCC(=O)O)[C@H]1CC[C@H]2[C@@H]3CC[C@@H]4C[C@H](O)CC[C@]4(C)[C@H]3C[C@H](O)[C@]12C [DEOXYCHOLIC ACID]
GI50 [1]: 45.8 µM (inactive) | GI50 [2]: 35.9 µM (inactive) | GI50 [3]: 27.9 µM (inactive) | GI50 [4]: 36.1 µM | GI50 [5]: 30.1 µM (inactive) | GI50 [6]: 34.1 µM (inactive) | GI50 [7]: 40.7 µM (inactive) | GI50 [8]: 27.9 µM (inactive) | GI50 [9]: 36.6 µM (inactive) | GI50 [10]: 40.8 µM (inactive) | GI50 [11]: 36.2 µM (inactive) | GI50 [12]: 41.5 µM (inactive) | GI50 [13]: 26.5 µM (inactive) | GI50 [14]: 32.8 µM (inactive) | GI50 [15]: 49.7 µM (inactive) | GI50 [16]: 44.7 µM (inactive) | GI50 [17]: 25.8 µM (inactive) | GI50 [18]: 37.8 µM (inactive) | GI50 [19]: 40.1 µM (inactive) | GI50 [20]: 31.4 µM (inactive)
